Entries after “also recorded” stand apart in the source; their conditions may differ.
Legend:
[1] = test system: type IV collagen degradation by collagenolytic E. faecalis E44; experiment: Collagen degradation by E. faecalis E44 with PLG, uPA and MMP9; assay type: biochemical, Enterococcus faecalis; conditions: fluorescently tagged type IV collagen
Protocol: Collagen degradation. Assays were performed per the manufacturer's instructions as previously described with slight modifications (51′). Bacteria were grown overnight in TY. Optical density was normalized to 0.1 through dilution. […] Total reaction volume was 200 L. The incubation proceeded at 37° C. for 5 hours to allow for bacterial attachment to collagen and PLG binding. uPA was added and the incubation proceeded for an additional hour. Change in fluorescence over time at 480/520 nm was determined kinetically over the initial 30 minutes of the reaction.
The role of activated plasminogen (PLG) in anastomotic leak. […] Co-incubation of E44 with murine macrophages ([…]) was performed for studies involving conditioned media. Twenty-week-old male C57BL/6 mice underwent the validated model of E44-induced AL that includes preoperative antibiotics to defaunate the colon, surgical transection and anastomosis of the colon and introduction of E44 in 10% glycerol to the surgical site via rectal enema on postoperative day 1. […] Anastomotic healing was assessed blindly using a validated anastomotic healing score (AHS): 0=uncomplicated healing, 1=flimsy adhesions, 2=dense adhesions, 3=abscess, and 4=gross anastomotic disruption. AL was defined as AHS 3 or above.

E. faecalis = experiment: Intrinsic bacterial type IV collagen degradation in the absence of PLG; assay type: biochemical, Enterococcus faecalis
Protocol: Collagen degradation. Assays were performed per the manufacturer's instructions as previously described with slight modifications (51′). Bacteria were grown overnight in TY. Optical density was normalized to 0.1 through dilution. Bacteria were then incubated with fluorescein-labeled type I collagen, type IV collagen, or gelatin according to the manufacturer's instructions (ThermoFisher), human PLG at 250 nM and TXA. Total reaction volume was 200 L. The incubation proceeded at 37° C. for 5 hours to allow for bacterial attachment to collagen and PLG binding. uPA was added and the incubation proceeded for an additional hour. Change in fluorescence over time at 480/520 nm was determined kinetically over the initial 30 minutes of the reaction.

[2] = test system: E. faecalis V583-induced AL
Protocol: Mouse model of AL. The experiments disclosed herein used the validated model of pathogen-mediated AL in mice (8′). Ten- to 12-week-old C57BL/6 mice (Charles River) were provided standard chow and tap water ad libidum at all times. When indicated, mice received oral clindamycin (100 mg/kg gavage) and subcutaneous cefoxitin (40 mg/kg) the day prior to, and the day of, surgery. Mice underwent general anesthesia with intraperitoneal ketamine and xylocaine and laparotomy followed by transection of the colon at the colo-rectal junction followed by a primary anastomosis created with interrupted 8-0 prolene suture prior to abdominal closure with 4-0 vicryl suture in two layers. Rectal enemas containing pathogen, either E. faecalis or P. aeruginosa at an OD600 of 0.1 in 10% glycerol, were administered in 100 L enemas. E. faecalis was introduced on POD 1, 2, and 3, while P. aeruginosa was introduced only on POD 1. Mice received 100 L rectal enemas containing 50 mM TXA or vehicle control on postoperative days 1, 2, and 3. Rectal delivery with a gavage needle ensured local administration of pathogen and study drugs to the surgical site. […] Both the surgeon and the investigator performing analysis of healing were blind to the treatment group. […]

Question: What does the source list for `NC[C@H]1CC[C@H](C(=O)O)CC1` [TXA, tranexamic acid]?
Answer: collagen degradation by E44 with PLG, uPA and MMP9 [1]: inhibited by TXA in a concentration-dependent fashion; also recorded: collagen degradation was inhibited; collagen degradation by E44 with PLG, uPA and MMP9 ([1]; listed as tranexamic acid): inhibited in a concentration-dependent manner; intrinsic bacterial type IV collagen degradation activity (E. faecalis): no effect; mean anastomotic healing score (AHS) ([2]; 100 μL enema of 50 mM TXA POD 1, 2, 3, POD 8, vehicle 2.7±0.2): 1.5±0.2; trichrome staining of POD8 anastomotic tissue ([2]; TXA enema versus vehicle with AL): increased quantity and organization of fibroblastic products in the submucosa

From patent publication US12383579B2, “Materials and methods of using an inhibitor of plasminogen activation to treat anastomotic leak” (THE UNIVERSITY OF CHICAGO, priority 2018, dated 2025)
